pIC50: −log10 of the molar value.
Legend:
[1] = Ability to block capsaicin-induced calcium influx in rat-human chimera TRPV1 expressing CHO cells; type: cell-based
[2] = Ability to block acid-induced calcium influx in rat-human chimera TRPV1 expressing CHO cells; type: cell-based

| pIC50 [1] | pIC50 [2] | SMILES |
| --- | --- | --- |
| 7.05 | 7.09 | Cc1cccc(C)c1Nc1nc(C(=O)Nc2ccc(C(F)(F)F)cc2)cs1 |
| < 5.40 | < 5.40 | O=C(Nc1ccc(C(F)(F)F)cc1)c1csc(Nc2c(Cl)cccc2C(F)(F)F)n1 |
|  | < 5.40 | Cc1nc(Cc2c(Cl)cccc2Cl)sc1C(=O)Nc1ccc(C(F)(F)F)cc1 |
| 6.96 | 6.89 | O=C(Nc1ccc(C(F)(F)F)nc1)c1csc(Cc2c(Cl)cccc2Cl)n1 |
| < 5.40 | < 5.40 | O=C(Nc1ccc(Br)cn1)c1csc(Cc2c(Cl)cccc2Cl)n1 |
| < 5.40 | < 5.40 | COc1ccc(NC(=O)c2csc(Cc3c(Cl)cccc3Cl)n2)cn1 |
| 5.76 | 5.85 | O=C(Nc1ccc(C(F)(F)F)cc1)c1csc(Nc2ccccc2Cl)n1 |
| 6.09 | 5.84 | CCc1ccc(NC(=O)c2csc(Cc3c(Cl)cccc3Cl)n2)cc1 |
| 6.54 | 6.46 | O=C(Nc1ccc(C(F)(F)C(F)(F)F)cc1)c1csc(Cc2c(Cl)cccc2Cl)n1 |
| 7.21 | 6.70 | O=C(Nc1ccc(C(F)(F)F)cc1)c1coc(Cc2c(Cl)cccc2Cl)n1 |
| 6.40 | 6.34 | O=C(Nc1ccc(Br)cc1)c1csc(Cc2c(Cl)cccc2Cl)n1 |
| 7.29 | 7.32 | O=C(Nc1ccc(C(F)(F)F)cc1)c1csc(Nc2c(Cl)cccc2Cl)n1 |
| 6.24 | 6.52 | CC(C)(C)c1ccc(NC(=O)c2csc(Cc3c(Cl)cccc3Cl)n2)cc1 |

More lines, now with the values behind:

| SMILES | pIC50 [1] | pIC50 [2] |
| --- | --- | --- |
| O=C(Nc1ccccc1)c1csc(Cc2c(Cl)cccc2Cl)n1 | < 5.40 | < 5.40 |
| CN(C)c1ccc(NC(=O)c2csc(Cc3c(Cl)cccc3Cl)n2)cc1 | < 5.40 | 5.90 |
| COc1ccc(NC(=O)c2csc(Cc3c(Cl)cccc3Cl)n2)cc1 | < 5.40 | < 5.40 |
| O=C(Nc1ccc(C(F)(F)F)cc1)c1csc(Nc2c(Cl)cncc2Cl)n1 | 6.44 | 6.06 |
| O=C(Nc1cccc(Br)c1)c1csc(Cc2c(Cl)cccc2Cl)n1 | < 5.40 | < 5.40 |
| O=C(Nc1ccccc1Br)c1csc(Cc2c(Cl)cccc2Cl)n1 | < 5.40 | < 5.40 |
| O=C(Nc1ccc(C(F)(F)F)cc1)c1cnc(Cc2c(Cl)cccc2Cl)s1 | 6.10 | 5.75 |
| CC(C)c1ccc(NC(=O)c2csc(Cc3c(Cl)cccc3Cl)n2)cc1 | 6.43 | 6.28 |
| O=C(Nc1ccc(C(F)(F)F)cc1)c1c[nH]c(Cc2c(Cl)cccc2Cl)n1 | 6.64 | 6.64 |
| O=C(Nc1ccc(C(F)(F)F)cc1)c1csc(CCc2c(Cl)cccc2Cl)n1 | < 5.40 | < 5.40 |
| O=C(Nc1ccc(C(F)(F)F)cc1)c1csc(Oc2c(Cl)cccc2Cl)n1 | 6.06 | 5.89 |
| Cn1cc(C(=O)Nc2ccc(C(F)(F)F)cc2)nc1Cc1c(Cl)cccc1Cl | 6.00 | 5.99 |
| N#Cc1ccc(NC(=O)c2csc(Cc3c(Cl)cccc3Cl)n2)cc1 | 6.35 | 6.14 |
| O=C(Nc1ccc(C(F)(F)F)cc1)c1csc(Cc2c(Cl)cccc2Cl)n1 |  | 7.06 |
| O=C(Nc1ccc(C(F)(F)F)cc1)c1csc(-c2c(Cl)cccc2Cl)n1 | < 5.40 | < 5.40 |

Reference: ChEMBL document CHEMBL1141866, “Synthesis and evaluation of thiazole carboxamides as vanilloid receptor 1 (TRPV1) antagonists” (Bioorg Med Chem Lett, 2005)
